Bridge positions count the residues as written; N and C are the ends. Square brackets hold non-standard residues; d marks the D form. Peptide text beside a SMILES is read from it. d2Nal = N[C@H](Cc1ccc2ccccc2c1)C(=O)O; Nle = CCCC[C@H](N)C(=O)O
Tests used:
OATP1B3 = molecular target: T1, OATP1B3 (Homo sapiens, UniProt Q9NPD5); assay: Inhibition of prototypical substrate (CCK‐8) uptake by TCMCB07 in HEK293/OATP1B3 cells; format: in vitro ADME
T1 construct: host or cells: HEK293
T1 sequence (Q9NPD5 1-702): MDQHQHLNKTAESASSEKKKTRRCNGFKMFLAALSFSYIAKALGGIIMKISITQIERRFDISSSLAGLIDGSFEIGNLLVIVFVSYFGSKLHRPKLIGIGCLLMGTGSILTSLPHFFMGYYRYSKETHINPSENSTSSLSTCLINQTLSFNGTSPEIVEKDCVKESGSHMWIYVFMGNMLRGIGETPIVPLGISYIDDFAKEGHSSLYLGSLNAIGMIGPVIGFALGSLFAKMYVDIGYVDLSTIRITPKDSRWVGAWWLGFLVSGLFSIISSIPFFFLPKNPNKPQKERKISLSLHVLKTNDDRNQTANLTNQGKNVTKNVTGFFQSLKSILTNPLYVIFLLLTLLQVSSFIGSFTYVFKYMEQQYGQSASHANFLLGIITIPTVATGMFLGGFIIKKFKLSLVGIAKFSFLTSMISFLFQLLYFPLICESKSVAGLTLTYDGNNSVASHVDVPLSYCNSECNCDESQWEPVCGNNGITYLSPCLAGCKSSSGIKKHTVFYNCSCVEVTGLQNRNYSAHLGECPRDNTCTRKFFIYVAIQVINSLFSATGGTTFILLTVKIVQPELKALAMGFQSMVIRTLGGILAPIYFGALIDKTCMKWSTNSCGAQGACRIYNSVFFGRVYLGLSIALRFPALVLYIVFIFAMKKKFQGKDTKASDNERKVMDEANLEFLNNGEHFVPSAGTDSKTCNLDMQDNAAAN
Description: (§1) Cells were then washed three times × 1.0 mL each with pre‐warmed Hank's Balanced Salt Solution (HBSS) buffer. A 0.5 mL aliquot of uptake buffer [HBSS plus 10 mM 4‐(2‐hydroxyethyl)‐1‐piperazineethanesulfonic acid (HEPES), pH 7.4], containing the radiolabelled prototypical substrate and mannitol, was then incubated for various times up to 60 min to determine the optimal incubation time for subsequent experiments (i.e. time of sampling during linear uptake conditions). At the designated times, 1.0 mL of ice‐cold HBSS buffer was added to stop uptake after which the cells were rinsed three times with 1.0 mL with ice‐cold HBSS. Hyamine hydroxide (0.33 mL) was then added to each well to lyse the cells. The cells were transferred into a scintillation vial and mixed with 6.0 mL of cytosine scintillation cocktail. Radioactivity of the solubilized cells was determined with a dual‐channel liquid scintillation counter (Beckman LS 6000; Beckman Coulter Inc., Fullerton, CA) and the protein quantified by a bicinchoninic acid protein assay kit (Pierce Biotechnology; Rockford, IL).

OCT2 = molecular target: T2, OCT2 (Homo sapiens, UniProt O15244); assay: Inhibition of prototypical substrate (MPP+) uptake by TCMCB07 in HEK293/OCT2 cells; format: in vitro ADME
T2 construct: host or cells: HEK293
T2 sequence (O15244 1-555): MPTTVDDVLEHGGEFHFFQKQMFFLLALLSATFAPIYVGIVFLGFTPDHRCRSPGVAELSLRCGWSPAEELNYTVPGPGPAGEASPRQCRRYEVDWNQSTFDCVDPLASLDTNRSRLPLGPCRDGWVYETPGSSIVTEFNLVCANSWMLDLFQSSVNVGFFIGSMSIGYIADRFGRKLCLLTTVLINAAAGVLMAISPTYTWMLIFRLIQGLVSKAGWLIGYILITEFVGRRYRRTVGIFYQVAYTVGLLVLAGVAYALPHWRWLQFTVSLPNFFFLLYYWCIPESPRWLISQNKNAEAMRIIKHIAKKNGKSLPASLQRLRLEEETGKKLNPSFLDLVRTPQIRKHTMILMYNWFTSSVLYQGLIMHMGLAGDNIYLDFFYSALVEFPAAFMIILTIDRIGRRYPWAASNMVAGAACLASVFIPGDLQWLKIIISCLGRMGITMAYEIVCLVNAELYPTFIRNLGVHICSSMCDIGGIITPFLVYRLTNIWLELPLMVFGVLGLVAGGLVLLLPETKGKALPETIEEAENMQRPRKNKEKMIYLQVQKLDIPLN
Description: as §1

BCRP (ABCG2) = molecular target: T3, BCRP (ABCG2) (Homo sapiens, UniProt Q9UNQ0); assay: Transepithelial transport of rosuvastatin (±TCMCB07) in MDCKII/BCRP cells; format: in vitro ADME
T3 construct: host or cells: MDCKII
T3 sequence (Q9UNQ0 1-655): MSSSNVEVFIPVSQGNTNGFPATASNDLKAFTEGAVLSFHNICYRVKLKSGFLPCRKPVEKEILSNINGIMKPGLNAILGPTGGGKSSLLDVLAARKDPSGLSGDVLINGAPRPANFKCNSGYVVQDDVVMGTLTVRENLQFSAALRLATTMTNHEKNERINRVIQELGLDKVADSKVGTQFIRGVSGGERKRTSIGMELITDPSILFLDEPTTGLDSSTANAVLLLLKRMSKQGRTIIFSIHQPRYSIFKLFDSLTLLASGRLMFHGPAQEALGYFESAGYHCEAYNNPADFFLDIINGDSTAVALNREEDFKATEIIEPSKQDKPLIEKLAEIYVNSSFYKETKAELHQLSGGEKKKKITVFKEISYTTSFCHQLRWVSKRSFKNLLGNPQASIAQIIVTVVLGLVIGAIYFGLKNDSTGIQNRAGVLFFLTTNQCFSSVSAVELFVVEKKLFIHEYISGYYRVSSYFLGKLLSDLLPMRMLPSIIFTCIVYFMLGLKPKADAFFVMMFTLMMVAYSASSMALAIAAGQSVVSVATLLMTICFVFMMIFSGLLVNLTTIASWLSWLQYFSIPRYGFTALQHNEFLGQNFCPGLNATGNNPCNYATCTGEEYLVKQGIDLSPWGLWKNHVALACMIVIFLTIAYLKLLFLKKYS
Description: Cells were then washed three times, each with 0.5 mL pre‐warmed HBSS buffer. […] The cells were then incubated for various times up to 60 min. […] At the designated times, 15 μL of apical buffer and 50 μL of basolateral buffer were sampled. Once all the samples were collected, 0.5 mL of ice‐cold HBSS buffer was added to the well to stop transport after which the cells were rinsed three times with 0.5 mL of ice‐cold HBSS. The filters with monolayers were then detached from the chamber and placed in a scintillation vial, and the cells were lysed with 0.33 mL hyamine hydroxide.
The permeability of digoxin and rosuvastatin (prototypical substrates for MDR1 and BCRP, respectively) was determined by the following ^18 : (4) Papp=CR·VR/CD^o·A·∆Δt, where Papp is the apparent permeability, CR is the concentration of substrate in the receiver chamber, CD^o is the concentration of substrate in the donor chamber at time zero, VR is the volume of buffer in the receiver chamber, A is the surface area of the insert filter membrane, and ∆t is the time over which permeability is measured.
A similar analysis can be performed for rosuvastatin by substituting ERRos for ERDig and ERRos+T for ERDig+T in Eqn 6.

[1] = In vivo mass balance study (urinary and faecal recovery) in mice; conditions: mouse, in vivo; for dose excreted at 24 h: total radioactivity
Description: Each mouse was then placed in a metabolic cage for 24 h, along with food and water, and the urine and faeces were collected. The metabolic cage was washed several times, after which 100 μL aliquots of diluted urine and faeces was placed in separate vials. Radioactivity measurements were then performed as described previously. All animal procedures were approved by the Institutional Animal Care and Use Committee at the University of Michigan, Ann Arbor.

[2] = in the presence of 500 μM TCMCB07, increased by

- IC50 (OATP1B3): 307 ± 39 µM
- Slope factor (OATP1B3; slope factor n of Eqn 1, OATP1B3, substrate CCK‐8): 1.8 ± 0.3
- IC50 (OCT2): 1170 µM
- % Change ER of rosuvastatin, 100·(1−ERRos+T/ERRos) (BCRP (ABCG2); MDCKII/BCRP, 500 μM TCMCB07, negative = efflux ratio increased): −32%
- increase of BCRP‐mediated permeability of rosuvastatin, A to B direction (BCRP (ABCG2); [2]): 5%
- increase of BCRP‐mediated permeability of rosuvastatin, B to A direction (BCRP (ABCG2); [2]): 37%
- effect on BCRP‐mediated permeability of prototypical substrate (BCRP (ABCG2); transfected cells, 500 μM TCMCB07): did not affect
- oral absorption [1]: 24.2%
- dose excreted at 24 h ([1]; iv, 23.3 mg/kg, % Urinary recovery, intravenous TCMCB07): 14%
- dose excreted at 24 h ([1]; iv, faecal (biliary) share of total recovery (faeces/(urine + faeces))): 76%
- dose excreted at 24 h ([1]; po, 23.3 mg/kg, % Urinary recovery, oral TCMCB07): 5%
- dose excreted at 24 h ([1]; po, faecal share of total recovery (faeces/(urine + faeces))): 95%
SMILES: CCCC[C@H](NC(C)=O)C(=O)N[C@H]1CC(=O)NCCCC[C@@H](C(=O)N[C@@H](C(=O)N2CCC[C@@H]2C(N)=O)C(C)C)NC(=O)[C@H](Cc2c[nH]c3ccccc23)NC(=O)[C@H](CCCN=C(N)N)NC(=O)[C@@H](Cc2ccc3ccccc3c2)NC(=O)[C@@H]2CCCN2C1=O [TCMCB07, Ac‐Nle‐c[Asp‐Pro‐dNal2′‐Arg‐Trp‐Lys]‐dVal‐dPro‐NH2] (Ac-[Nle]DP[d2Nal]RWK[dV][dP]-NH2; lactam 2-7)

From article PMC7749613 (Journal of Cachexia, Sarcopenia and Muscle, 2020)
